Results on three compounds are retold here after patent US6838436B1, “Inhibitors of proteasomal activity for stimulating bone growth” (Osteoscreen Inc., priority 1998, dated 2005).

Assay [1] concerns calvaria. Nature of the assay: Calvarial assay of epoxomicin (Example 7), new bone area. The class given is cell-based, mouse. The protocol: An assay for bone resorption or bone formation is similar to that described by Gowen M. & Mundy G., J Immunol (1986) 136:2478-82. Briefly, four days after birth, the front and parietal bones of ICR Swiss white mouse pups are removed by microdissection and split along the sagittal suture. In an assay for resorption, the bones are incubated in BGJb medium (Irvine Scientific, Santa Ana, Calif.) plus 0.02% (or lower concentration) β-methylcyclodextrin, wherein the medium also contains test or control substances. The medium used when the assay is conducted to assess bone formation is Fitton and Jackson Modified BGJ Medium (Sigma) supplemented with 6 μg/ml insulin, 6 μg/ml transferrin, 6 ng/ml selenous acid, calcium and phosphate concentrations of 1.25 and 3.0 mM, respectively, and ascorbic acid to a concentration of 100 μg/ml is added every two days. The incubation is conducted at 37° C. in a humidified atmosphere of 5% CO2 and 95% air for 96 hours.
New bone formation was determined (using a 10× objective) by measuring the new bone area formed in one field in 3 representative sections of each bone (4 bones per group). Each measurement was carried out ½ field distance from the end of the suture. Both total bone and old bone area were measured. Data were expressed as new bone area in μm^2.

Assay [2] deals with calpain. To be noted: cited from earlier work.
In assay [3] the target is T1, papain (Carica papaya, UniProt P00784).
T1 sequence (P00784 134-345): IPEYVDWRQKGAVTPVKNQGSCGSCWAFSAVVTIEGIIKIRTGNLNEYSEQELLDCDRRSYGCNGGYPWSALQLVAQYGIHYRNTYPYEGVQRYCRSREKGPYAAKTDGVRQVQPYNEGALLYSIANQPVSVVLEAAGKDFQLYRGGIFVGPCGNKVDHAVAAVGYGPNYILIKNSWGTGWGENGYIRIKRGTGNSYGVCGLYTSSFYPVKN
The note with it: cited from earlier work.

The subject of assay [4] is hair follicles. In words: Topical administration of PSI, hair growth (Examples 13 and 14). The class given is in vivo, mice. As for the experimental part:
PSI was prepared as a topical formulation, where the vehicle was 50% propylene glycol, 30% ethanol, 20% deionized water, at 0.1% concentration of PSI. The solution was applied 3 times a day for 5 days. The mice in a treated group were observed as compared to controls similarly treated with vehicle alone.
When the protocol above was repeated using a 0.5% solution of PSI in groups containing 5 mice each, the number of hairs per 0.8 mm^2 was 60 in the treated mice versus about 10 in the control group. The percentage of follicle area in a region of about 0.8 mm was about 30% as an average in the treated group as compared to 15% as an average in the control group.
In order to determine the minimal effective dosage of PSI, when used topically, a dose response curve for PSI was prepared. All experiments were preformed according to current good laboratory practice regulations (21CFR58). The mice were divided into 7 groups, 10 mice each, wherein one group was control treated only with vehicle and groups 1-6 with a series of increasing concentrations of PSI in a vehicle comprising 50% propylene glycol, 30% ethanol, 20% deionized water. The concentrations were 0.006%, 0.012%, 0.025%, 0.05%, 0.11% and 0.5%.
The mice were anesthetized (50 μl Mouse Cocktail containing 3 ml ketamine, 2 ml small animal rompum, 5 ml NaCl), identified by ear punch code, weighed and the hair on the dorsal side removed by waxing as described in Example 6. After waxing, the animals were photographed. On the following day (day 1), 100 μl of PSI at the above concentrations in vehicle was brushed onto the area of removed hair. A similar application of PSI solution was performed daily for an additional 4 days.
On Day 7 mice were anesthetized and a biopsy of the dorsal treatment area taken using a 6 mm dermal punch; the specimens were fixed in 10% buffered formalin and embedded in paraffin wax. Sections were cut using a standard microtome.
Mice were monitored daily for signs of hair growth, and any hair growth was recorded by photography. On day 21 animals were euthanized (75 mg/kg body weight phenobarbital, IP injection), 2 cm hair samples were taken for optical based fiber analysis, and the remaining dorsal treatment area was fixed in 10% buffered formalin for further histological analysis. Analysis included quantification of hair thickness and quantification of mature hair follicles. Results were expressed as the mean=+/−the standard error of the mean. Data were analyzed by repeated measures of analysis of variance followed by the Tukey-Kramer post test P values of <0.05 were considered significant.

In assay [5] the test system is calvaria of normal mice. Nature of the assay: In vivo assay of effects on murine calvarial bone growth. Also noted: species or system ICR Swiss white mice. To be noted: for % Increase in Bone Area Compared with Control: p < 0.05; for % Increase in New Bone Width: p < 0.001. As for the experimental part: Male ICR Swiss white mice, aged 4-6 weeks and weighing 13-26 gm, are employed, using 4-5 mice per group. The calvarial bone growth assay is performed as described in PCT application WO95/24211, incorporated by reference. Briefly, the test compound or appropriate control vehicle is injected into the subcutaneous tissue over the right calvaria of normal mice. Typically, the control vehicle is the vehicle in which the compound was solubilized, and is PBS containing 5% DMSO or is PBS containing Tween (2 μl/10 ml). The animals are sacrificed on day 14 and bone growth measured by histomorphometry. Bone samples for quantitation are cleaned from adjacent tissues and fixed in 10% buffered formalin for 24-48 hours, decalcified in 14% EDTA for 1-3 weeks, processed through graded alcohols; and embedded in paraffin wax. Three to five μm sections of the calvaria are prepared, and representative sections are selected for histomorphometric assessment of the effects on bone formation and bone resorption. Sections are measured by using a camera lucida attachment to trace directly the microscopic image onto a digitizing plate. Bone changes are measured on sections cut 200 μm apart, over 4 adjacent 1×1 mm fields on both the injected and noninjected sides of the calvaria. New bone is identified by its characteristic woven structure, and osteoclasts and osteoblasts are identified by their distinctive morphology. Histomorphometry software (OsteoMeasure, Osteometrix, Inc., Atlanta) is used to process digitizer input to determine cell counts and measure areas or perimeters.
Typical treatment regimens for testing utilize application of the compound to be tested over several days of repeated administration.
PSI and MG-132 were assayed in vivo according to the procedure described previously (see “In vivo Assay of Effects of Compounds on Murine Calvarial Bone Growth”, supra). As a control, simvastatin provided a 1.5 fold increase in the number of osteoblasts.
In one experiment, vehicle control, bFGF and varying doses of PSI were tested in the in vivo calvarial bone growth assay. The results are reported as a measurement of total bone area, % increase in area over vehicle control, and % increase in new bone width as shown below.

Assay [6] relates to proteasomal activity. The note with it: cited from earlier work.

Marks after values point to notes of the source that are not given here. Where a SMILES comes first, the peptide text is derived from it. The star is where a group is joined. Cbz = O=C(OCc1ccccc1)*; OtBu = CC(C)(C)O*

`CC[C@H](C)[C@H](NC(=O)[C@H]([C@@H](C)CC)N(C)C(C)=O)C(=O)N[C@H](C(=O)N[C@@H](CC(C)C)C(=O)[C@@]1(C)CO1)[C@@H](C)O` [Epoxomicin]: the “bone formed compared with control” value in assay [1] (concentrations of 5-10 nM) is “significantly more bone was formed than in the control”. Moreover, the “New Bone Area” value is recorded as 2.78 mm^2 × 10^−3 in assay [1] (dose 0.000625 μM); 2.80 mm^2 × 10^−3 in assay [1] (dose 0.00125 μM); 4.04 mm^2 × 10^−3 in assay [1] (dose 0.0025 μM); 6.54# mm^2 × 10^−3 in assay [1] (dose 0.005 μM); 5.74# mm^2 × 10^−3 in assay [1] (dose 0.01 μM). Further, the “concentration up to which no inhibition appears” value in assay [2] and in assay [3] was above 50 µM each time.
`CC[C@H](C)[C@H](NC(=O)OCc1ccccc1)C(=O)N[C@@H](CCC(=O)OC(C)(C)C)C(=O)N[C@@H](C)C(=O)N[C@H](C=O)CC(C)C` [PSI, N-carbobenzoyl-Ile-Glu-(OtBu)-Ala-Leu-CHO] (Cbz-IE(OtBu)AL-aldehyde): the “effectiveness on hair growth” value in assay [4] (0.1% of PSI applied topically 3 times a day for 5 days (additional experiments)) is “effective”. For the same compound, in assay [4] (topical), the “thickness of hair and hair shaft” value was “thicken both the hair and the hair shaft”. Besides, the “percentage of follicle area in a region of about 0.8 mm” value in assay [4] (topical 0.5% solution of PSI, average, control 15%) is given as “about 30%”. In addition, the “number of hairs per 0.8 mm^2” value in assay [4] (topical 0.5% solution of PSI, control about 10) worked out at 60. The “hair growth relative to controls” value in assay [4] (topical, 0.1% PSI, 3 times a day for 5 days, day 16) is on record as “stimulation of hair growth relative to the controls”. In assay [4] (topical, applied 1 time a day for 4 days), this compound returned a minimal effective dose of 0.5%. Besides, in assay [5] (5 mg/kg/day and 1 mg/kg/day of PSI), the “histological examination of bone growth” value is “confirmation of bone growth”. Also, the Total Bone Area turned out to be 0.74 ± 0.02 mm² in assay [5] (PSI 0.1 mg/kg/day), 0.83 ± 0.02 mm² in assay [5] (PSI 1 mg/kg/day) and 0.79 ± 0.03 mm² in assay [5] (PSI 5 mg/kg/day). Further, the “% Increase in Bone Area Compared with Control” value in assay [5] (PSI 0.1 mg/kg/day) came to 21.7 ± 3.5%; in assay [5] (PSI 1 mg/kg/day), 35.4 ± 3.4%; in assay [5] (PSI 5 mg/kg/day), 32.1 ± 5.6%. In addition, the “% Increase in New Bone Width” value is 19.9 ± 2.0% in assay [5] (PSI 1 mg/kg/day) and 19.9 ± 4.4% in assay [5] (PSI 5 mg/kg/day).
For the compound simvastatin, in assay [6], the “effects on proteasomal activity” value was “no effects on proteasomal activity”. In addition, the “increase in the number of osteoblasts” value in assay [5] (mouse, in vivo) is 1.5 fold.
